# Article PMC10766639, “Synthesis, in vitro potency of inhibition, enzyme kinetics and in silico studies of quinoline-based α-glucosidase inhibitors” (Scientific Reports, 2024)
# Where two headings read alike, the source gives them in different places.
# Assays:
# [1] = target: Saccharomyces cerevisiae α-glucosidase enzyme (EC. 3. 2. 1. 20) (Saccharomyces cerevisiae, UniProt P38158); test: In vitro α-glucosidase inhibitory activity; assay type: biochemical
# Description: In order to conduct the enzyme assay, the Saccharomyces cerevisiae α-glucosidase enzyme (EC. 3. 2. 1. 20) have been used.
# [2] = Concentrations of precipitation; assay type: physicochemical
# Description: Table 1 α-Glucosidase inhibitory activity of compounds 8a–t. | column: Concentrations of precipitation (µM)
# [3] = target: α-glucosidase; set-up: method as in PMID 36782003, PMID 35982225, PMID 36928433, PMID 37188744, doi:10.1039/C5MD00280J; conditions: cited from earlier work
# [4] = target: α-glucosidase (Saccharomyces cerevisiae, UniProt P38158); test: Enzyme kinetic study (Lineweaver–Burk plot); assay type: biochemical
# Description: A Lineweaver–Burk plot was generated to recognize the type of inhibition and the Michaelis–Menten constant (Km) value was defined from the plot between the reciprocal of the substrate concentration (1/[S]) and reciprocal of enzyme rate (1/V) over different concentrations of inhibitor.
# Chain of Saccharomyces cerevisiae α-glucosidase enzyme (EC. 3. 2. 1. 20) (P38158 whole entry): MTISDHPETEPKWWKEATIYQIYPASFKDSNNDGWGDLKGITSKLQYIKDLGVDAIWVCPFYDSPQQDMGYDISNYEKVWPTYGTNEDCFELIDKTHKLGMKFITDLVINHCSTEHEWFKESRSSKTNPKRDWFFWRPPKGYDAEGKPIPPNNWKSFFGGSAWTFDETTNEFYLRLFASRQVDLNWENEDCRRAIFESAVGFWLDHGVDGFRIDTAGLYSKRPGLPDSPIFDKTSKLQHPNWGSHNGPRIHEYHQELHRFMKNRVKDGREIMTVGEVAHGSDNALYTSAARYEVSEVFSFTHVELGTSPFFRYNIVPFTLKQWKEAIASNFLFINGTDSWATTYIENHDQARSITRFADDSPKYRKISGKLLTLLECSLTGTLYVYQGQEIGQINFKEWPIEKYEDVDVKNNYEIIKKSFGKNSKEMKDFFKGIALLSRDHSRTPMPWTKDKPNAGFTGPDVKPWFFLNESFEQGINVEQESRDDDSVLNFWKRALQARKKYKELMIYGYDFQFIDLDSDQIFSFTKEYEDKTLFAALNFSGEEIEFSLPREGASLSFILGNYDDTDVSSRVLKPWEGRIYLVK
# Chain of α-glucosidase (Saccharomyces cerevisiae, UniProt P38158) (P38158 whole entry): as above
Compound,Concentrations of precipitation [2],IC50 [1],melting point,other results
2-((3-(benzo[d]thiazol-2-yl)quinolin-2-yl)thio)-N-(4-methyl-2-nitrophenyl)acetamide [Compound 8n],> 90 µM,,,"IC50 ([1]; α-glucosidase, mean ± SD of three independent determinations of triplicate samples, read-out: IC50): 65.9 ± 1 µM"
O=C(N/N=C/c1cc(O)c(O)cc1O)c1ccc(-c2nnc(-c3ccc4ncccc4c3)o2)cc1 [A],,,,"IC50 ([3]; Fig. 2, study of compound A with its acarbose standard): 2.6 ± 0.01 µM"
O=C(CSc1nc2ccccc2cc1-c1nc2ccccc2[nH]1)Nc1cccc(Cl)c1 [C],,,,"IC50 ([3]; Fig. 2, study of compound C with its acarbose standard): 3.2 ± 0.3 µM"
"O=C(CSc1nc2ccccc2cc1-c1nc2ccccc2s1)Nc1ccccc1 [Compound 8a, 2-((3-(benzo[d]thiazol-2-yl)quinolin-2-yl)thio)-N-phenylacetamide]",> 90 µM,299 ± 0.1 µM,,
"Cc1ccccc1NC(=O)CSc1nc2ccccc2cc1-c1nc2ccccc2s1 [Compound 8b, 2-((3-(benzo[d]thiazol-2-yl)quinolin-2-yl)thio)-N-(o-tolyl)acetamide]",> 90 µM,79.9 ± 1.2 µM,211 to 213 °C,"Potency compared to para-isomer (8c) ([1]; α-glucosidase, more potent than 8c): fivefold"
"Cc1ccc(NC(=O)CSc2nc3ccccc3cc2-c2nc3ccccc3s2)cc1 [Compound 8c, 2-((3-(benzo[d]thiazol-2-yl)quinolin-2-yl)thio)-N-(p-tolyl)acetamide]",> 90 µM,384.3 ± 0.3 µM,,
"CCc1ccc(NC(=O)CSc2nc3ccccc3cc2-c2nc3ccccc3s2)cc1 [Compound 8d, 2-((3-(benzo[d]thiazol-2-yl)quinolin-2-yl)thio)-N-(4-ethylphenyl)acetamide]",> 90 µM,194.4 ± 0.8 µM,,
"Cc1cccc(NC(=O)CSc2nc3ccccc3cc2-c2nc3ccccc3s2)c1C [Compound 8e, 2-((3-(benzo[d]thiazol-2-yl)quinolin-2-yl)thio)-N-(2,3-dimethylphenyl)acetamide]",> 90 µM,130.4 ± 0.5 µM,,
"Cc1cccc(C)c1NC(=O)CSc1nc2ccccc2cc1-c1nc2ccccc2s1 [Compound 8f, 2-((3-(benzo[d]thiazol-2-yl)quinolin-2-yl)thio)-N-(2,6-dimethylphenyl)acetamide]",> 90 µM,231.6 ± 0.7 µM,,
"O=C(CSc1nc2ccccc2cc1-c1nc2ccccc2s1)Nc1ccccc1F [Compound 8g, 2-((3-(benzo[d]thiazol-2-yl)quinolin-2-yl)thio)-N-(2-fluorophenyl)acetamide]",> 90 µM,198.5 ± 0.9 µM,201 to 203 °C,
"O=C(CSc1nc2ccccc2cc1-c1nc2ccccc2s1)Nc1ccc(F)cc1 [Compound 8h, 2-((3-(benzo[d]thiazol-2-yl)quinolin-2-yl)thio)-N-(4-fluorophenyl)acetamide]",> 90 µM,38.2 ± 0.3 µM,,Type of inhibition ([4]; Lineweaver–Burk plot): non-competitive inhibition; Ki ([4]; read-out: Ki (inhibition constant)): 38.2 µM
"O=C(CSc1nc2ccccc2cc1-c1nc2ccccc2s1)Nc1ccccc1Cl [Compound 8i, 2-((3-(benzo[d]thiazol-2-yl)quinolin-2-yl)thio)-N-(2-chlorophenyl)acetamide]",> 90 µM,118 ± 1.4 µM,221 to 223 °C,
"O=C(CSc1nc2ccccc2cc1-c1nc2ccccc2s1)Nc1cccc(Cl)c1 [Compound 8j, 2-((3-(benzo[d]thiazol-2-yl)quinolin-2-yl)thio)-N-(3-chlorophenyl)acetamide]",> 90 µM,111.7 ± 1.1 µM,,
"O=C(CSc1nc2ccccc2cc1-c1nc2ccccc2s1)Nc1ccc(Cl)cc1 [Compound 8k, 2-((3-(benzo[d]thiazol-2-yl)quinolin-2-yl)thio)-N-(4-chlorophenyl)acetamide]",> 90 µM,145 ± 1.5 µM,,
"O=C(CSc1nc2ccccc2cc1-c1nc2ccccc2s1)Nc1ccc(Br)cc1 [Compound 8l, 2-((3-(benzo[d]thiazol-2-yl)quinolin-2-yl)thio)-N-(4-bromophenyl)acetamide]",> 90 µM,182.7 ± 1 µM,,
"O=C(CSc1nc2ccccc2cc1-c1nc2ccccc2s1)Nc1ccc([N+](=O)[O-])cc1 [Compound 8m, 2-((3-(benzo[d]thiazol-2-yl)quinolin-2-yl)thio)-N-(4-nitrophenyl)acetamide]",> 90 µM,198.9 ± 1.5 µM,209 to 211 °C,
"O=C(CSc1nc2ccccc2cc1-c1nc2ccccc2s1)Nc1ncc([N+](=O)[O-])s1 [Compound 8o, 2-((3-(benzo[d]thiazol-2-yl)quinolin-2-yl)thio)-N-(5-nitrothiazol-2-yl)acetamide]",> 90 µM,47.2 ± 0.6 µM,199 to 201 °C,
"O=C(CSc1nc2ccccc2cc1-c1nc2ccccc2s1)Nc1cccc2ccccc12 [Compound 8p, 2-((3-(benzo[d]thiazol-2-yl)quinolin-2-yl)thio)-N-(naphthalen-1-yl)acetamide]",> 90 µM,139.8 ± 1 µM,198 to 200 °C,
"O=C(CSc1nc2ccccc2cc1-c1nc2ccccc2s1)NCc1ccccc1 [Compound 8q, 2-((3-(benzo[d]thiazol-2-yl)quinolin-2-yl)thio)-N-benzylacetamide]",> 90 µM,255.6 ± 0.3 µM,,
"Cc1ccc(CNC(=O)CSc2nc3ccccc3cc2-c2nc3ccccc3s2)cc1 [Compound 8r, 2-((3-(benzo[d]thiazol-2-yl)quinolin-2-yl)thio)-N-(4-methylbenzyl)acetamide]",> 90 µM,161.4 ± 0.4 µM,182 to 184 °C,
"O=C(CSc1nc2ccccc2cc1-c1nc2ccccc2s1)NCc1ccc(F)cc1 [Compound 8s, 2-((3-(benzo[d]thiazol-2-yl)quinolin-2-yl)thio)-N-(4-fluorobenzyl)acetamide]",> 90 µM,130.1 ± 0.7 µM,213 to 215 °C,"Less activity compared to phenyl one ([1]; α-glucosidase, para-fluoro benzyl less active than para-fluoro phenyl): about threefold"
"O=C(CSc1nc2ccccc2cc1-c1nc2ccccc2s1)NCCc1ccccc1 [Compound 8t, 2-((3-(benzo[d]thiazol-2-yl)quinolin-2-yl)thio)-N-phenethylacetamide]",> 90 µM,222.7 ± 0.9 µM,225 to 227 °C,
Cc1cccc(C)c1NC(=O)CSc1nc2ccccc2cc1/C=N/NC(=O)c1ccccc1 [D],,,,"IC50 ([3]; Fig. 2, study of compound D with its acarbose standard): 14 ± 0.6 µM"
Oc1ccc(-c2nnc(-c3ccc(-c4nc5ccccc5s4)cc3)o2)cc1O [E],,,,"IC50 ([3]; Fig. 2, study of compound E with its acarbose standard): 0.5 ± 0.01 µM"
O=C(N/N=C/c1ccc(Cl)cc1)c1ccc(-c2nc3ccccc3s2)cc1 [F],,,,"IC50 ([3]; Fig. 2, study of compound F with its acarbose standard): 5.31 ± 0.03 µM"
